{"source": "patent US7553667B2", "about": "“Regulation of gene expression using chromatin remodelling factors” (Her Majesty the Queen in right of Canada as represented by …, priority 2002, dated 2009)", "key": {"BnSCL1 gene expression": {"system": "BnSCL1 gene expression", "experiment": "Quantitative one-step RT-PCR of BnSCL1 expression in treated seedlings", "type": "in vivo, Brassica napus", "protocol": "In exogenous applied auxin treatments, four-leaf stage seedlings grown at 20° C. were treated with a foliar spray containing 1 mM 2,4-D and 50 mM sodium phosphate, pH 7.5. The four leaves were collected at 30 min, 60 min and 180 min after the first foliar application of 2,4-D. For the measurement of response of shoots and roots to auxin, sterilized seeds were germinated on plates in a growth chamber with continuous light at 20° C., and 10 dpg seedlings were supplied with varied concentration of 2,4-D. In the auxin transport inhibition experiments, 9 dpg seedlings were incubated in the medium supplemented with 50 μM NPA dissolved in 0.1% DMSO for 24 h before the 2,4-D treatment. For the HDAC inhibitor treatments, 10 mM sodium butyrate was added onto the growth medium and incubated for 24 h followed by exogenous 2,4-D application at varied concentrations.\nTotal RNA extracted as described above was treated with Amplification Grade Deoxyribonuclease I (GibcoL BRL) following the manufacture's instructions. The RNA samples were then directly used for reverse transcription prior to amplification without purification. The RT-PCR was quantitatively performed and completed in a one-step reaction using […] One-Step RT-PCR System (GibcoL BRL) as described by Gao et al. (2002). Gene-specific sense and anti-sense primers used to generate a 960 bp fragment of Brassica napus Actin, as an internal standard, were as described in Gao et al., (2002). Gene-specific primers for the generation of BnSCL1, BnIAA1 and BnIAA12 fragments were as follows: […]"}, "bnKCP1 expression": {"system": "bnKCP1 expression", "experiment": "Northern blot of bnKCP1 expression in leaves of treated seedlings", "type": "in vivo, Brassica napus", "conditions": "for bnKCP1 transcript in leaves after treatment: four-leaf stage seedlings, room temperature, 10 μM inomycin or 20 mM LaCl3", "protocol": "Brassica napus L. cv Cascade (winter type), Westar (spring type) and DES010 (spring type) were used for the isolation of genomic DNA and total RNA. Leaves, flowers, stems, siliques and immature seeds were harvested from plants cultured in a controlled-environment greenhouse programmed for a photoperiod of 16 h day and 8 h night. Roots were obtained by culturing sterilized seeds in 0.8% agar plates containing ½ MS medium and 1% sucrose. For cold acclimation (4° C.), abscisic acid (250 μM), drought and high salt (850 mM NaCl) treatments, four-leaf stage seedlings were treated and fourth fully expanded leaf blades were harvested as described by Gao et al. (2002). LaCl3 and inomycin treatments were carried out by watering four-leaf stage plants with 20 mM LaCl3 and 10 μM inomycin, respectively. Plants were covered with SARAN Wrap to slow evaporation.\nTotal RNA was isolated from the tissues of B. napus L. cv DES010. These included leaves and stems of four-leaf stage seedlings, flowers, immature siliques of adult plants, and roots of cultured seedlings as described by Gao et al. (2001). Probe labelling, hybridization, washing and membrane stripping were performed as described above in the Southern blot analysis Section."}, "[1]": {"system": "lacZ reporter gene driven by promoter containing GAL4 DNA binding sites", "experiment": "Transactivation assay of bnKCP1 using yeast one-hybrid system", "type": "cell-based, yeast MaV203", "conditions": "transactivation in yeast", "from_the_text": "Effector plasmids pDBLeu-bnKCP1^1-160, pDBLeu-bnKCP1^1-80, pDBLeu-bnKCP1^81-215 and pDBLeu-bnKCP1 were constructed by ligating the PCR-amplified fragments ΔbnKCP1^1-160, ΔbnKCP1^1-80, ΔbnKCP1^81-215 and the coding region of bnKCP1 into the SalI/NotI sites of pDBLeu vector (GibcoL BRL) in-frame with the GAL4 DB sequence. The oligonucleotide primers for PCR amplification were as follows: […]\nThe three reporter genes, lacZ, HIS3 and URA3, which were chromosomally integrated in the genome of MaV203 yeast cells were driven by unrelated promoters containing GAL4 DNA binding sites (GibcoL BRL). For transient assays, the effector constructs or the negative control vector pDBLeu were transferred to the MaV203 yeast cells. The β-galactosidase activity was measured using CPRG (chlorophenol red-β-D-galactopyranoside) according to the manufacturer's instructions (GibcoL BRL). The MaV203 cells containing plasmids pDBLeu-HDA19 and pPC86-bnKCP1 were used as the positive control. In addition, we used three yeast control strains A, B, and C (GibcoL BRL), which were developed to contain plasmid pairs expressing fusion proteins with none, weak and moderately strong protein-protein interaction strength, respectively. Transient Expression of the GUS-bnCKP1 Fusion Protein"}, "GST-Gcn5": {"target": "T1, GST-Gcn5 (Arabidopsis thaliana, UniProt Q9AR19)", "T1 construct": "made in house; host or cells: E. coli BL21-CodonPlus (DE3)-RP", "T1 sequence (Q9AR19 1-568)": "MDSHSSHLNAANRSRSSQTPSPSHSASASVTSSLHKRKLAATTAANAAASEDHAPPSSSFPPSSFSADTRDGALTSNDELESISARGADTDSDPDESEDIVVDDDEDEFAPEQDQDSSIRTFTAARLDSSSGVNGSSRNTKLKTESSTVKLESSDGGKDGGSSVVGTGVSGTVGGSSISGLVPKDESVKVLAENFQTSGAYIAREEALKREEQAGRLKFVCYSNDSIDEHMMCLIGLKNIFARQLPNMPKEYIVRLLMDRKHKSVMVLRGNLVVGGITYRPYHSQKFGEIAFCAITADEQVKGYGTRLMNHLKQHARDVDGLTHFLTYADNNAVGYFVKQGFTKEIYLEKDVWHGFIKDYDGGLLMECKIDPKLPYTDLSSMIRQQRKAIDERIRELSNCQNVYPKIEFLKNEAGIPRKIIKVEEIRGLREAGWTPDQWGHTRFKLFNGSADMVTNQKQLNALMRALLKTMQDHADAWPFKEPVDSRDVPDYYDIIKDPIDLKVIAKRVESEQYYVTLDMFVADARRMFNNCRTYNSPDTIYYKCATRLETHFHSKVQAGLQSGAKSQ", "experiment": "GST pulldown affinity assay of bnKCP1 and mutants with GST-Gcn5", "type": "binding", "conditions": "[35S]Met-labeled in vitro translated protein", "from_the_text": "(§1) The full coding regions of the Arabidopsis HAT, Gcn5 (Dr. M. Thomashow, Michigan State University, MI), and HDA19 (Accession # AF195547) were PCR amplified, sequence analyzed and inserted in-frame with the GST (glutathione s-transferase) into the SalI and NotI sites of vector pGEX-6P-2 (Amersham Pharmacia). The forward used for the amplification of Gcn5 was:\n(§2) Recombinant pGEX-6P-2 plasmids were used to transform E. coli BL21-CodonPlus (DE3)-RP competent cells (Stratagene). Expression and purification under non-denaturing conditions were carried out as described by Gao et al. (Gao, M.-J. et al., 2002). The GST-Gcn5 and GST-HDA19 fusion proteins were analyzed by 7.5% SDS-PAGE (SDS-polyacrylamide gel electrophoresis) and western blotting with rabbit anti-GST-Pi polyclonal antibody (Chemicon) using ECL Western blotting analysis system (Amersham Pharmacia).\n(§3) Full-length bnKCP1 and truncated mutant bnKCP1^1-160 and bnKCP1^1-80 proteins labeled with [^35S]methionine were produced using TNT-Quick Coupled Transcription/Translation System (Promega) according to the manufacture's instructions, with some modifications. A total of 1 μl of RNase inhibitor (GibcoL BRL) and 1 μl of protease inhibitors set (Roche) were added to the lysate reaction. After incubation for 90 min at 30° C., RNase A was added to the reaction to a final concentration of 0.2 mg/ml and incubated for 5 min at the same temperature.\nIn vitro protein interaction was detected with GST pulldown affinity assays as described by Ahmad et al. (1999) with some modifications. […] After washing six times with 1.2 ml of bead-binding buffer without BSA and EtBr but containing 12 μl of protease inhibitors set (Roche), the bound proteins were eluted with 30 μl of 2×SDS loading buffer, boiled for 2 min and analyzed by 12% SDS-PAGE. […]"}, "GST-HDA19": {"target": "T2, GST-HDA19 (Arabidopsis thaliana, UniProt O22446)", "T2 construct": "made in house; host or cells: E. coli BL21-CodonPlus (DE3)-RP", "T2 sequence (O22446 1-501)": "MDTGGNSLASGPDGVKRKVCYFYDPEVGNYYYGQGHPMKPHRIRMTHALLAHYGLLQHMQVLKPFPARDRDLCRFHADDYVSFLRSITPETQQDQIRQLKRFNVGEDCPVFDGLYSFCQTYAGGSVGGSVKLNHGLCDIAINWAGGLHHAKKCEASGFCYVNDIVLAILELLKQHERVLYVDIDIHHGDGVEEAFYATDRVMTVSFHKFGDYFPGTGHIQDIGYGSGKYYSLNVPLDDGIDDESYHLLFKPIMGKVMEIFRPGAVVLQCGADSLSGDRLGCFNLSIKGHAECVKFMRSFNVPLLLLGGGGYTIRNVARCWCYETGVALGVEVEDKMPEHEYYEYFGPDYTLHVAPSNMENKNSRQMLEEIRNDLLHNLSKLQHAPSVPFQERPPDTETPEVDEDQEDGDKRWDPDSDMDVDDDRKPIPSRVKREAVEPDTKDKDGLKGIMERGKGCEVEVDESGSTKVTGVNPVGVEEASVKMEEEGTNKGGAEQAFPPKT", "experiment": "GST pulldown affinity assay of bnKCP1 and mutants with GST-HDA19", "type": "binding", "conditions": "[35S]Met-labeled in vitro translated protein", "from_the_text": "as §1, §2, §3\nIn vitro protein interaction was detected with GST pulldown affinity assays as described by Ahmad et al. (1999) with some modifications. Briefly, 6 μg of GST or 4 μg of GST-fusion protein was incubated with 5 μl of [^35S]Met-labeled translation mixture in 200 μl of bead-binding buffer (50 mM K-phosphate, pH 7.6, 450 mM KCl, 10 mM MgCl2, 10% glycerol, 1% Triton X-100, 1% BSA and 1 μl of diluted 1:12 protease inhibitors set) for 1 h at room temperature. After incubation, 20 μl of 50% slurry of glutathione-Sepharose beads containing 10 mg/ml of BSA and 4 μg of EtBr was mixed with the reaction mixture followed by gentle rotation for 1 h at 4° C. After washing six times with 1.2 ml of bead-binding buffer without BSA and EtBr but containing 12 μl of protease inhibitors set (Roche), the bound proteins were eluted with 30 μl of 2×SDS loading buffer, boiled for 2 min and analyzed by 12% SDS-PAGE. After electrophoresis, the gels were dried, treated with Amplify (Amersham Pharmacia) and subjected to fluorography."}}, "data": [{"molecule": "O=C(O)c1ccccc1C(=O)Nc1cccc2ccccc12", "note": "[NPA, naphthylphthalamic acid]", "values": [{"measurement": "BnSCL1 mRNA accumulation profiles in response to auxin in shoots and roots", "setting": "BnSCL1 gene expression; 50 μM for 24 h before 2,4-D at different concentrations", "value": "not changed"}]}, {"molecule": "O=C(O)COc1ccc(Cl)cc1Cl", "note": "[2,4-D]", "values": [{"measurement": "BnSCL1 expression in roots", "setting": "BnSCL1 gene expression; 10 dpg seedlings, 100 μM required to produce an effect", "value": "upregulated"}, {"measurement": "expression of BnSCL1 in shoots", "setting": "BnSCL1 gene expression; 10 dpg seedlings, even at the lowest level (1 pM)", "value": "rapidly downregulated"}, {"measurement": "increase of BnSCL1 mRNA accumulation", "setting": "BnSCL1 gene expression; four-leaf stage seedlings, leaves, within 30 min of 1 mM foliar application, vs untreated plants", "value": "approximately 50%"}]}, {"molecule": "inomycin", "values": [{"measurement": "bnKCP1 transcript in leaves after treatment", "setting": "bnKCP1 expression", "value": "rapid (2 hrs) but short-lived"}]}, {"molecule": "[Cl][La]([Cl])[Cl]", "note": "[LaCl3]", "values": [{"measurement": "bnKCP1 transcript in leaves after treatment", "setting": "bnKCP1 expression", "value": "undetectable"}]}, {"molecule": "CC1=CC(=O)CC(C)(C)[C@@]1(O)/C=C/C(C)=C\\C(=O)O", "note": "[ABA, abscisic acid]", "values": [{"measurement": "bnKCP1 expression in leaf blades after treatment", "setting": "bnKCP1 expression; exogenous application for up to 8 hours, data not shown", "value": "not detected"}]}, {"molecule": "ΔbnKCP1^1-80: C-terminal truncated mutant of bnKCP1, residues 1-80, lacking the KID domain (protein) MAGGGPTFSIELSAYGSDLPTDKASGDIPNEEGSGLSRVGSGIWSGRTVDYSSESSSSIGTPGDSEEEDEESEEDNDEEE", "values": [{"measurement": "influence of deletion of KID or GKSKS domains on β-galactosidase activity", "setting": "[1]", "value": "no significant influence"}, {"measurement": "in vitro binding to GST-Gcn5", "setting": "GST-Gcn5", "value": "no interaction"}, {"measurement": "in vitro binding to GST-HDA19", "setting": "GST-HDA19", "value": "no interaction"}]}, {"molecule": "bnKCPG^188: bnKCP1 with S188 mutated to G188 by site-directed mutagenesis (protein) MAGGGPTFSIELSAYGSDLPTDKASGDIPNEEGSGLSRVGSGIWSGRTVDYSSESSSSIGTPGDSEEEDEESEEDNDEEELGLASLRSLEDSLPSKGLSSHYKGKSKSFGNLGEIGSVKEVPKQENPLNKKRRLQIYNKLARKSFYSWQNPKSMPLLPVHEDNDDEEGDDGDLSDEERGGDVLARRPGFKNRALKSMSCFALSDLQEEEEEEEDE", "values": [{"measurement": "in vitro binding to GST-HDA19", "setting": "GST-HDA19", "value": "significantly reduced binding"}]}, {"molecule": "ΔbnKCP1^1-160: C-terminal truncated mutant of bnKCP1, residues 1-160, lacking the KID domain (protein) MAGGGPTFSIELSAYGSDLPTDKASGDIPNEEGSGLSRVGSGIWSGRTVDYSSESSSSIGTPGDSEEEDEESEEDNDEEELGLASLRSLEDSLPSKGLSSHYKGKSKSFGNLGEIGSVKEVPKQENPLNKKRRLQIYNKLARKSFYSWQNPKSMPLLPVH", "values": [{"measurement": "influence of deletion of KID or GKSKS domains on β-galactosidase activity", "setting": "[1]", "value": "no significant influence"}, {"measurement": "in vitro binding to GST-Gcn5", "setting": "GST-Gcn5", "value": "no interaction"}, {"measurement": "in vitro binding to GST-HDA19", "setting": "GST-HDA19", "value": "no interaction"}]}]}
